Assay results published in a melting point compilation (Tetko et al.; mined from patent text by program, amines drawn as free bases though some values may be those of a salt).

| Compound | melting point [°C] |
| --- | --- |
| Cc1cc(Cc2cc3cc(C(F)(F)F)ccc3n2S(=O)(=O)c2cccc(C(C)(C)C)c2)c(F)cc1C(=O)O | 195 |
| O=S1(=O)NC=Nc2cc(C(F)(F)F)c(F)cc21 | 152 |
| CCCCCCCCCCCCCCCCCCOCC(Br)COCCCCCCCCCCCCCCCCCC | 47.9 to 48.7 |
| COC(=O)C1=C(C)NC(C)=C(Cl)C1c1ccccc1 (centres undefined) | 147 |
| CN1CCN(Cc2cc(-c3ccc4c(c3)CCO4)nn(CC3CC3)c2=O)CC1 | 128 to 130 |
| CC(=O)OCC1CC(Nc2cc(Cl)c(Cl)cc2[N+](=O)[O-])C(OC(C)=O)C1OC(C)=O (centres undefined) | 128 to 130 |
| O=C(O)c1cc(CN2C(=O)C3(COc4cc5c(cc43)OCO5)c3ccccc32)oc1C(F)(F)F (centres undefined) | 195 to 197 |
| Cc1c(C)c2c(c(C)c1NC(=O)c1ccc(F)cc1)C(c1ccc(F)cc1)C(C)(C)O2 (centres undefined) | 140 to 142 |
| CC(=O)N1c2ccccc2CC1c1ccccc1NC(=O)C(C)(C)C (centres undefined) | 184 to 186 |
| N#CC(N)C(=O)c1ccc(C=O)cc1 (centres undefined) | 122 to 125 |
| COc1ccc(C)cc1NC(=O)Nc1ccc(N2CCN(C(N)=O)CC2)cc1 | 136 |
| O=S(=O)(C1CC1)C(F)(F)C(O)(Cn1cncn1)c1ccc(F)cc1 (single isomer, unassigned; (+)) | 144 to 145 |
| [N-]=[N+]=Nc1cc(C2COCOC2)c2occc2c1 | 102 to 104 |
| CCC1CC2C3CCC4=CC(=O)CCC4C3CCC2(C)C1OC(=O)CO (centres undefined) | 156 to 157 |
| CCN1C(=O)C(C(=O)Nc2ccc(F)cc2F)c2cc(C3(C)OCCO3)ccc21 (centres undefined) | 166 to 170 |
| Cc1cc(C(=O)NCc2ccc(Br)cc2F)c(O)cc1F | 149 to 150 |
| OC1CSC(Oc2ccccn2)C(O)C1O (centres undefined) | 196 |
| Cn1c(C(F)(F)F)cc(=O)n(-c2cc(OCS(C)=O)c(Cl)cc2F)c1=O (centres undefined) | 178 to 179 |
| CN1CCN(Cc2ccc(COc3cccc4c3CN(C3CCC(=O)NC3=O)C4=O)cc2)CC1 (centres undefined) | 188 to 190 |
| CS(=O)(=O)c1cn(CC2=NCCN2)c2ccc(N)cc12 | 215 to 217 |
| CO[C@@H]1CC[C@@H](NC(C)=O)c2ccccc21 (relative stereo) | 97 to 100 |
| CCOC(=O)C1(C(C)C)OC2(O)C3CCCN3C(=O)C(C(C)C)N2C1=O (centres undefined) | 103 to 104 |

| Compound | melting point [°C] |
| --- | --- |
| COc1cc(NC(=O)Nc2ccc(C3CCN(C(=O)Nc4ccc(OCC(O)CO)cc4Cl)CC3)cc2)cc(OC)c1 (centres undefined) | 105 to 108 |
| CCOC(=O)C(=CNc1nonc1C)C(=O)c1cc(F)c(F)c(F)c1F | 88 to 92 |
| CCCCCCCCCCC[C@H](CC(=O)N[C@@H](CO)CCCNC(=O)OCc1ccccc1)OCc1ccccc1 | 118 |
| O=C(NCC#CCN1CCN(c2ncccn2)CC1)c1nsc2ccccc12 | 102 to 104 |
| CCOC(=O)C1=C(COCCNC(=O)n2ccnc2)NC(C)=C(C(=O)OC)C1c1ccccc1Cl (centres undefined) | 149 to 151 |
| Nc1nnc(-c2cc(Cl)cc(Cl)c2O)s1 | 268 |
| CCn1c(N)c(C(=O)NC)c(=O)c2ccc(C#CC(C)(C)OCC(N)=O)nc21 | 204 |
| CCNC(=O)n1nc(Oc2ccc([N+](=O)[O-])c(C)c2)cc1C | 67 to 69 |
| CC(C)COC(=O)/C=C/C1NC(=O)CN1C(=O)OCc1ccccc1 (centres undefined) | 97 to 100 |
| O=C(Nc1nccs1)c1nc(-c2ccc(N3CCC(N4CCOCC4)CC3)cc2)[nH]c1-c1ccc(Cl)cc1 | 165 to 170 |
| O=C1c2ccccc2C(=O)N1C(O)C1OC(n2ccc(=O)[nH]c2=O)CC1O (centres undefined) | 241 to 242 |
| CC(C)(CO)c1ccc(C(O)CCCN2CCC(=C3c4ccccc4CCc4ccccc43)CC2)cc1 (centres undefined) | 157 to 159 |
| CCCc1nc2c(c(C)c(C)n3nnnc23)n1CC(C)(C)NC(=O)c1ccccc1 | 221 to 223 |
| O=Cc1c(Cl)cc(CO)cc1Cl | 109 to 110 |
| CCn1c(COC(=O)NC(=O)C(C)(C)C)nc(C(C)C)c1Sc1cc(Cl)cc(Cl)c1 | 157 to 159 |
| O=C(O)[C@@H]1CCN2C(=O)CC[C@H](N3C(=O)c4ccccc4C3=O)C(=O)N12 | 232 to 233 |
| CCCCCCCCc1ccc(CCC(CC)(CCOC(C)=O)NC(C)=O)cc1 (centres undefined) | 108 to 110 |
| CCc1c(C(=O)C(C)C)c2ccc(C#N)cc2n1Cc1ccccc1Cl | 132 to 134 |
| Cc1cccc(-c2[nH]nnc2-c2ccc3c(c2)NC(=O)CO3)n1 | 224 |
| CC(C)c1nn(-c2ccc(Cl)cn2)cc1C=O | 69 to 70 |
| Cc1cc(NC(=O)C(CS)CC(C)C)cc(C(=O)O)c1 (centres undefined) | 193 to 195 |
| O=Cc1cc(Oc2c(Cl)cc(C(F)(F)F)cc2Cl)ccc1[N+](=O)[O-] | 115 |

| Compound | melting point [°C] |
| --- | --- |
| CCCCCc1ccc(OC(=O)Oc2ccc([N+](=O)[O-])cc2)cc1 | 67 to 69 |
| CC1CN(c2nc(Cl)nc(C(C)O)n2)CC(C)N1 (centres undefined) | 126 to 128 |
| O=C(c1cnc(N2CCCC2)c(OCC2CCCC2)n1)N1CCCCC1 | 61 to 62 |
| CCn1cc(C(=O)O)c(=O)c2cc(F)c(N3CCC4CCC(C3)N4)cc21 (centres undefined) | 147 to 150 |
| Nc1ccc(F)c(O)c1 | 156 to 157 |
| CC(C)CNC(=O)COc1ccc(C2=NNC(=O)NC2C)cc1Cl (centres undefined) | 205 to 206 |
| O=C(O)c1nc(C2CC2)[nH]c(=O)c1Cl | 189 to 190 |
| CNC1CCN(c2nc3c(cc2F)c(=O)c(C(=O)O)cn3C2CC2)C1 (centres undefined) | 233 to 235 |
| NNc1nncc(-c2ccc(F)cc2)n1 | 228 to 231 |
| Cc1nc2c(OCc3c(Cl)ccc(N(C)C(=O)CNC=O)c3Cl)cccn2c1Br | 211 to 212 |
| COc1cc(NCCCO)c([N+](=O)[O-])cc1O | 144 |
| O=c1cc(C2CCCCC2)oc2ccc(OCCCCCN3CCC(O)CC3)cc12 | 85 to 86 |
| C[C@@H]1OCCN(c2cc(N3CCOCC3)nc(-n3c(C(F)F)nc4ccccc43)n2)[C@@H]1C (relative stereo) | 167 to 169 |
| CCc1c(C)nc(OC)c(NC(=O)C(C)(C)C)c1Cc1cc(C)cc(C)c1 | 138 to 139 |
| Cc1cc(C)nc(NC(=O)NS(=O)(=O)C2CC3C=CC2O3)n1 (centres undefined) | 125 to 145 |
| COc1ccc(C2=CCN(Cc3n[nH]c4c(Cl)cccc34)CC2)cc1 | 201 to 203 |
| CC(=O)Nc1ccc2[nH]c(CO)cc2c1 | 161 |
| CCn1cc(C(=O)O)c(=O)c2cc(F)c(N3CCC(NC)C3)nc21 (centres undefined) | 242 |
| Cc1ccc(C2c3c(C)c(N4CCN(c5ccc(C#N)cc5)CC4)c(C)c(C)c3OC2(C)C)cc1 (centres undefined) | 216 to 217 |
| CCCCOCCOc1ccc(-c2ccc(N3CCCC3)c(C(C)=CC(=O)O)c2)cc1 | 128 |
| C=CCN1C(=O)NC(C)(C)C1=O | 66.2 to 68.7 |
| CCCC[C@@](C)(O)C(=O)O | 67.8 to 67.9 |

Second part, the compound after the results:

| melting point [°C] | Compound |
| --- | --- |
| 193 | Oc1ccc2c(c1)CCCC(c1ccccc1)=C2c1ccc(OCCCCCCCl)cc1 |
| 106 to 108 | O=C1c2ccccc2C(=O)N1OCc1cccc(C(F)(F)F)c1 |
| 233 to 235 | CC(C)(Cc1ccccc1)Nc1c(NCc2cc3cc(C#N)ccc3o2)c(=O)c1=O |
| 92 | CC(=O)/C=C(\C)c1ccc(-c2ccccc2F)cc1 |
| 50 to 80 | CS(=O)(=O)c1ccc(-c2cnn(-c3cccc(Cl)c3)c(=O)c2COc2ccc(F)cc2)cc1 |
| 184 to 185 | CCCCn1c(CO)nc2c(Cl)nc3ccccc3c21 |
| 119 | N#Cc1ccc(C=Cc2ccccc2)cc1 |
| 186 to 188 | O=C(Nc1cccc(F)c1)NC1CCN(S(=O)(=O)c2ccccc2)CC1 |
| 79 to 81 | Brc1cccc(OCc2ccc3ccccc3n2)c1 |
| > 300 | CC(C)OC(=O)c1ccc2c(c1)C(=O)CC(c1ccccc1)=N2 |
| 113 to 114 | COc1ccc(-c2nc(Cl)c(Oc3ccccc3OC)c(Cl)n2)cc1 |
| 190 to 192 | O=[N+]([O-])c1ccc2c(c1)C=Cc1ccc(Br)cc1S2 |
| 123 | COc1ccc2c(c1)c(OCc1ccccc1)c(C(=O)O)n2-c1ccccc1 |
| 192 to 194 | COc1cccc(-c2nc3ccc(OC(F)(F)F)cc3[nH]2)c1 |
| > 260 | N#Cc1ccc(-c2ccc(C(=O)O)nc2)cc1 |
| 122 | Cc1ncc(C(=O)N(C)Cc2cc(C(F)(F)F)cc(C(F)(F)F)c2)c(-c2ccccc2Br)n1 |
| 54 to 55 | COc1ccc2sc3ccccc3c2c1 |

| melting point [°C] | Compound |
| --- | --- |
| 78 | CC(=O)c1ccccc1NC(=O)Cc1ccccc1 |
| 128 | O=CC(=C(Cl)c1ccc(Cl)cc1Cl)c1ccc(Cl)cc1 |
| 200 to 201 | Cc1cc(-c2ccccc2)nc(SSc2nc(-c3ccccc3)cc(C)c2C#N)c1C#N |
| 186 to 188 | O=C1Cc2cccc(Sc3ccc(Cl)cc3)c2N1 |
| 170 to 174 | O=C(O)C(CCc1ccccc1)NS(=O)(=O)c1ccc2c(c1)S(=O)(=O)c1ccccc1O2 (centres undefined) |
| 72 to 97 | O=C(Cc1ccc(O)cc1)NC1CCN(Cc2ccc(Cl)c(Cl)c2)CC1 |
| 190 to 192 | COc1ccc(NC(=O)OC(C)(C)C)c(C(=O)NCCc2ccc(N=C(N)c3cccs3)cc2)c1 |
| 13.3 | FC(F)c1ccccc1C=C1c2ccccc2CCc2ccccc21 |
| 125 to 127 | COc1ccnc(CSc2nc3cscc3n2CO)c1 |
| 94 to 99 | COc1ccc2[nH]c(Sc3ccc(C=O)o3)nc2c1 |
| 164 to 166 | Cn1cc(-c2ccccc2)c(=O)c(-c2cccc(C#N)c2)c1 |
| 128 to 133 | Cc1cc(C)nc(OC(C(=O)O)C(O/C=C/Cc2ccccc2)(c2ccccc2)c2ccccc2)n1 (centres undefined) |
| 234 to 235 | CCc1cccc(CC)c1NC(=O)C1c2ccccc2COc2ccc(Br)cc21 (centres undefined) |
| 117 to 118 | C=CCC(C(=O)OC)(C(=O)OC)C(Cc1ccccc1N)c1ccc(OC)cc1 (centres undefined) |
| 174 to 175 | COCOc1ccc(Cl)cc1-c1cc(-c2cccc(N)c2)c(C#N)c(NC(=O)c2ccccc2)n1 |
| 258 to 262 | O=C(O)CN1C(=O)C(=Cc2ccc(-c3ccccc3)cc2)SC1=S |
